Measured values taken from patent US11970497B2, “Tricyclic AKR1C3 dependent KARS inhibitors” (Novartis AG, priority 2019, dated 2024).

What was measured:
LCLC-103H = test: Expanded lung cancer cell line proliferation assay; assay type: cell-based; settings: Homo sapiens, 72 h, average of PrestoBlue and Cell Titer Glo, AKR1C3 2.6 TPM, read-out: Absolute Qualified AC50
In short: (§1)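 Read-out: PrestoBlue (resazurin) plus CellTiter-Glo (ATP), multiplexed; Absolute Qualified AC50 averaged across the two. Compounds dosed 8-point from 1 μM top (1:3.16 steps), 72 h, 0.3% DMSO; normalized to DMSO neutral and 30 μM MG132 active controls.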

NCI-H1339 = test: Expanded lung cancer cell line proliferation assay; assay type: cell-based; settings: NCI-H1339, 72 h, average of PrestoBlue and Cell Titer Glo; AKR1C3 5.2 TPM; read-out: Absolute Qualified AC50
In short: as §1

NCI-H226 = test: Expanded lung cancer cell line proliferation assay; assay type: cell-based; settings: Homo sapiens; NCI-H226, 72 h, average of PrestoBlue and Cell Titer Glo; AKR1C3 2.9 TPM; read-out: Absolute Qualified AC50
In short: as §1

NCI-H322 = test: Expanded lung cancer cell line proliferation assay; assay type: cell-based; settings: NCI-H322, 72 h, average of PrestoBlue and Cell Titer Glo; AKR1C3 21 TPM; read-out: Absolute Qualified AC50
In short: as §1

NCI-H520 = test: Expanded lung cancer cell line proliferation assay; assay type: cell-based; settings: Homo sapiens; NCI-H520, 72 h, average of PrestoBlue and Cell Titer Glo; AKR1C3 608.9 TPM; read-out: Absolute Qualified AC50
In short: as §1

NCI-H2030 = test: Expanded lung cancer cell line proliferation assay; assay type: cell-based; settings: Homo sapiens; NCI-H2030, 72 h, average of PrestoBlue and Cell Titer Glo; AKR1C3 232.7 TPM; read-out: Absolute Qualified AC50
In short: as §1

NCI-H1792 = test: Expanded lung cancer cell line proliferation assay; assay type: cell-based; settings: Homo sapiens; NCI-H1792, 72 h, average of PrestoBlue and Cell Titer Glo; AKR1C3 418.6 TPM; read-out: Absolute Qualified AC50
In short: as §1

HLC-1 = test: Expanded lung cancer cell line proliferation assay; assay type: cell-based; settings: HLC-1, 72 h, average of PrestoBlue and Cell Titer Glo; AKR1C3 expression: no data available; read-out: Absolute Qualified AC50
In short: as §1

NCI-H1650 = test: Expanded lung cancer cell line proliferation assay; assay type: cell-based; settings: Homo sapiens; NCI-H1650, 72 h, average of PrestoBlue and Cell Titer Glo; AKR1C3 1.3 TPM; read-out: Absolute Qualified AC50
In short: as §1

[1] = system: NCI-H460 human lung cancer xenograft; test: In vivo efficacy in NCI-H460 xenograft; parameters: species or system mice; settings: for ΔT/ΔC: qd, Day 18
Procedure: Compound 40 Dose Dependent In Vivo Efficacy in the KEAP1 Mutant and Moderately AKR1C3 Expressing Human Lung Cancer Xenograft NCI-H460
Anti-cancer efficacy of Compound 40 was assessed in the NCI-H460 human lung cancer xenograft model in mice that expresses moderate levels of AKR1C3. NCI-H460 tumors were established in nude female mice by injection of a tumor cells subcutaneously. When tumors reached approximately 200 mm^3, mice were randomized according to tumor volume into treatment groups (n=7 per group) on Day 8.

Row | SMILES | AC50 (LCLC-103H) | AC50 (NCI-H1339) | AC50 (NCI-H226) | AC50 (NCI-H322) | AC50 (NCI-H520) | AC50 (NCI-H2030) | AC50 (NCI-H1792) | AC50 (HLC-1) | AC50 (NCI-H1650) | Tumor response ([1]; 75 mg/kg qd) | ΔT/ΔC ([1]; 75 mg/kg, po) | Tumor response ([1]; 150 mg/kg qd) | ΔT/ΔC ([1]; 150 mg/kg, po) | ΔT/ΔC ([1]; 300 mg/kg po) | Tumor response ([1]; 300 mg/kg qd)
1 | CN1c2ccc(F)cc2C(=O)CC12CCN(C(=O)NCc1ccc(F)c(NCCO)c1)CC2 [Example 36, 6′-fluoro-N-(4-fluoro-3-((2-hydroxyethyl)amino)benzyl)-1′-methyl-4′-oxo-3′,4′-dihydro-1′H-spiro[piperidine-4,2′-quinoline]-1-carboxamide] | > 1000 nM | > 1000 nM | > 1000 nM | > 1000 nM | > 1000 nM | 648 nM | 553 nM | > 1000 nM | > 1000 nM | – | – | – | – | – | –
2 | O=C1CC2(CCN(C(=O)NCc3ccc(F)cc3)CC2)Nc2ccc(F)cc21 [Example 40] | > 1000 nM | > 1000 nM | > 1000 nM | > 1000 nM | > 1000 nM | 364 nM | 196 nM | > 1000 nM | > 1000 nM | clear reduction in efficacy | 25.9% | some reduction in efficacy | 5.6% | 1.8% | Tumor stasis
